Activity calls are given as the source filed them.
Key:
[1] = Luminescence Cell-Based Dose Retest to Confirm Inhibitors of Cancer Stem Cells. [Related pubchem assays (depositor defined):AID2717, AID2721]; format: functional; settings: Homo sapiens
[2] = biological target: T1, Zinc finger protein mex-5 (Caenorhabditis elegans, UniProt Q9XUB2); experiment: potency of MEX-5 RNA-binding blockers – biochemical, C. elegans, fluorescence polarization, dose response (AID 1960)
T1 sequence (Q9XUB2 whole entry): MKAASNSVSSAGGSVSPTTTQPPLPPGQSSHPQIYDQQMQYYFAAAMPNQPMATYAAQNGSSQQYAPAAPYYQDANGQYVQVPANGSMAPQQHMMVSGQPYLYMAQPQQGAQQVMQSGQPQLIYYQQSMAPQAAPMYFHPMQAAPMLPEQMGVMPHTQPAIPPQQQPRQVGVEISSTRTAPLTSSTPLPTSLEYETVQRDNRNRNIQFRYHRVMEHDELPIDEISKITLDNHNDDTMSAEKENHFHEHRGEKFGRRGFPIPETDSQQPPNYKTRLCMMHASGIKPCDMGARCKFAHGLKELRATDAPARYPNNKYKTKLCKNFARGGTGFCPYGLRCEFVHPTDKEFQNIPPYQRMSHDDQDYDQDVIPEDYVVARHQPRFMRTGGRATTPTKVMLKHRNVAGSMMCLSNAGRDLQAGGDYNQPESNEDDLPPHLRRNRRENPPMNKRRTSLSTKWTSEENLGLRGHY

[3] = biological target: T2, RNA-binding protein pos-1 (Caenorhabditis elegans, UniProt G5EF15); experiment: disruptors of C. elegans POS-1 RNA interaction – biochemical, fluorescence polarization, dose response (AID 1964);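 also: purified POS-1 fused to maltose binding protein made in E. coli; potency of compounds blocking POS-1 binding to fluorescent RNA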
T2 sequence (G5EF15 whole entry): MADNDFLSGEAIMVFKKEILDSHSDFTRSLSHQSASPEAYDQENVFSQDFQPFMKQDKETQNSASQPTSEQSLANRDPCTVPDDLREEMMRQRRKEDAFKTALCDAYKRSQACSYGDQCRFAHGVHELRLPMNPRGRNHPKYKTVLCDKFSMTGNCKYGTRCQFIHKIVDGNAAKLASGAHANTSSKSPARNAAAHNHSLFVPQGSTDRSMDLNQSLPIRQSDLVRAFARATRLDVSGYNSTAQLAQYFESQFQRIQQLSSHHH

[4] = biological target: T3, Heat shock factor protein 1 (Mus musculus, UniProt P38532); experiment: enhancement of HSF1-driven luciferase signal – cell-based, NIH3T3, luminescence, dose retest, confirmation (AID 435004); format: functional;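 also: stress induced by proteasome inhibitor MG132 added 30 min after compound; luciferase reporter driven by HSF1 response element in NIH3T3 cells; actives raise luminescence as potentiators of the MG132 stress response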
T3 sequence (P38532 whole entry): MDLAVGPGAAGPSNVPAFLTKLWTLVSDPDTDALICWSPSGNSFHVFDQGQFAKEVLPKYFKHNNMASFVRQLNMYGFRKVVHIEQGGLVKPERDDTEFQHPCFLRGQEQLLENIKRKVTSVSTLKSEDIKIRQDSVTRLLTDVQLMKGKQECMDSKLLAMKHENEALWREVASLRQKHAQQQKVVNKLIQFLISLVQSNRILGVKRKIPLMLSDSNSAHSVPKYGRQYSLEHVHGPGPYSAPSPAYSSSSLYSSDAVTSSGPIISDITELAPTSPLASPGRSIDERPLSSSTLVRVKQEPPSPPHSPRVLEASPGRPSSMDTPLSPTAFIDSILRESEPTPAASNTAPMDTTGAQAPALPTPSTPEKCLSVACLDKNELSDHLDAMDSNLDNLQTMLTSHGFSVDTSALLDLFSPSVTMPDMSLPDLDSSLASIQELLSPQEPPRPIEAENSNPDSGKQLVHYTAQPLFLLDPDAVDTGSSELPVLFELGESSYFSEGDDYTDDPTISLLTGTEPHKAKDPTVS

[5] = biological target: Cytochrome P450 2C9 (Homo sapiens, UniProt P11712)
[6] = biological target: Cytochrome P450 3A4 (Homo sapiens, UniProt P08684);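 also: CYP3A4 tested as one member of a cytochrome P450 panel screen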
[7] = biological target: Cytochrome P450 2C19 (Homo sapiens, UniProt P33261); experiment: Cytochrome panel assay with activity outcomes. Panel member name: p450-cyp2c19 Compounds with AC50 equal or less than 10 uM are considered active; format: functional; settings: read-out: AC50
[8] = Luminescence Cell-Based Dose Confirmation HTS to Identify Activators of 5'UTR Stem-Loop Driven Alpha-Synuclein mRNA Translation in H4 Neuroglioblastoma Cells. [Related pubchem assays: 1829 (Project Summary), 1814 (Primary HTS)]; format: functional
[9] = Luminescence Cell-Based Dose Response HTS to Identify Activators of Luciferase Translation or Activity in H4 […] Cells. [Related pubchem assays: 1829 (Project Summary), 1814 (Primary HTS)]; format: functional
[10] = test system: H4; experiment: Luminescence Cell-Based Dose Response HTS to Identify Activators of 5'UTR Stem-Loop Driven Prion Protein mRNA Translation in H4 Neuroglioblastoma Cells. [Related pubchem assays: 1829 (Project Summary), 1814 (Primary HTS)]; format: functional; settings: Homo sapiens
[11] = biological target: T4, Cytochrome P450 1A2 (Homo sapiens, UniProt P05177);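 also: PubChem cytochrome P450 panel assay, CYP1A2 panel member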
T4 sequence (P05177 whole entry): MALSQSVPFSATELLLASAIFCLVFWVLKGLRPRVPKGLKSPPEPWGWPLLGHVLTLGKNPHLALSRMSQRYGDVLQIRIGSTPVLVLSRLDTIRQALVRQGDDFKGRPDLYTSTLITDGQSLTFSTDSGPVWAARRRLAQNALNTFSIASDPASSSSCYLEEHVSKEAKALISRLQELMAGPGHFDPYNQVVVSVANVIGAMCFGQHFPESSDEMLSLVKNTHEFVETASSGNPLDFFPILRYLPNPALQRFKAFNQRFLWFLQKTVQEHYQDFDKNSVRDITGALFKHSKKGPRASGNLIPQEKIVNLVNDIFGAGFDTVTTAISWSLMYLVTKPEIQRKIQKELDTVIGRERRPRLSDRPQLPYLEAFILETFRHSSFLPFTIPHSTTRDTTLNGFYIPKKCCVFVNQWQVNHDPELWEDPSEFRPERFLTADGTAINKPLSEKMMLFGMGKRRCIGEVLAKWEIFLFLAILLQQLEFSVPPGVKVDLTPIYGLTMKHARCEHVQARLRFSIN

[12] = reduction of Shn3 3'UTR-driven luciferase in osteoblasts – cell-based, Clone20 osteoblasts, firefly luciferase, cherry-picked, dose response (AID 624132); format: functional;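 also: firefly luciferase luminescence from reporter carrying the Shn3 3'UTR in osteoblasts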
[13] = non-specific 3'UTR reporter inhibition in Clone20-Shn3RL – cell-based, Renilla luciferase, cherry-picked, counter-screen for Shn3 inhibitor project, dose response (AID 624133); format: functional

Chain of Cytochrome P450 2C19 (P33261 whole entry): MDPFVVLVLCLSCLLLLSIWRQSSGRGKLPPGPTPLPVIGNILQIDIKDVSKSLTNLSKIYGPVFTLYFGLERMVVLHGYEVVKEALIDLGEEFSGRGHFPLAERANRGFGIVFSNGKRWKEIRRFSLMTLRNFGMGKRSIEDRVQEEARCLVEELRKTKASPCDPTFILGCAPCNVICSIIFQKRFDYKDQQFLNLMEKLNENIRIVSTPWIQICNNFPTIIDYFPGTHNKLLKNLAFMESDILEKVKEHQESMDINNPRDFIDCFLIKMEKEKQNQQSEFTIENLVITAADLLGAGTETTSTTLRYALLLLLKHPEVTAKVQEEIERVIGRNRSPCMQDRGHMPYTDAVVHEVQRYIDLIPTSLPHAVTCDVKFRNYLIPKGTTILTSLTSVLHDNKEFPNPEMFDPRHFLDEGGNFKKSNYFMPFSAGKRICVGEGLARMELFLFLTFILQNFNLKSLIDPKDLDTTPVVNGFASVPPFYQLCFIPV
Chain of Cytochrome P450 2C9 (P11712 whole entry): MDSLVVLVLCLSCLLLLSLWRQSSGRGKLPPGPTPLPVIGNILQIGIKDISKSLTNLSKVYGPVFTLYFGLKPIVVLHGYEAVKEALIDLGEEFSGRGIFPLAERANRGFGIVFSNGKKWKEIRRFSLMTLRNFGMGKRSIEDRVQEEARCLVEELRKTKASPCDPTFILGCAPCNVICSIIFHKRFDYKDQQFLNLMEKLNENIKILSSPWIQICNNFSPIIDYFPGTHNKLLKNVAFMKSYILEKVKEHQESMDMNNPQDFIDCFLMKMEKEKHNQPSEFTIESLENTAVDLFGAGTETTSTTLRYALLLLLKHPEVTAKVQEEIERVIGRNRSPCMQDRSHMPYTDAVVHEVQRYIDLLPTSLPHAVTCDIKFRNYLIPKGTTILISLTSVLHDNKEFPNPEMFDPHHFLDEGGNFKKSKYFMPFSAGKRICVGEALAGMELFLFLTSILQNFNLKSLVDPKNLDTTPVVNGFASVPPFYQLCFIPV
Chain of Cytochrome P450 3A4 (P08684 whole entry): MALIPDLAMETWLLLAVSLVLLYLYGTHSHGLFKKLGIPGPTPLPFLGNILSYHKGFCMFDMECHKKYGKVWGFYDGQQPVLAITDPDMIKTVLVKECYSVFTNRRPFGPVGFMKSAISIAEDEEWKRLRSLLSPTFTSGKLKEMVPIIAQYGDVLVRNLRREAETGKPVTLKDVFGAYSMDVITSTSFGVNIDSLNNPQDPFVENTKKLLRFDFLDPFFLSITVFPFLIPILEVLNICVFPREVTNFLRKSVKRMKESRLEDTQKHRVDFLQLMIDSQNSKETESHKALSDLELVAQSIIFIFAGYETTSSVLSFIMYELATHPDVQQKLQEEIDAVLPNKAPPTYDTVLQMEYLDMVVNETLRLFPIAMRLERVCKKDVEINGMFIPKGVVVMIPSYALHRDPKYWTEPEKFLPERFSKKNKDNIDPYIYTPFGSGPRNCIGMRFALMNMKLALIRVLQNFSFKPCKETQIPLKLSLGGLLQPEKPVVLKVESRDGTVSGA

COc1ccc(-c2sc3cc4c(cc3c2C#CC2(O)CCCCC2)OCO4)cc1
AC50 [1]: 4.07 µM (active)

CC(=O)c1ccc2c(c1)C1C=CCC1C(c1cc3c(cc1Br)OCO3)N2 (stereo unspecified)
EC50 [2]: > 300 µM (not active) | EC50 [3]: > 300 µM (not active)

Cc1onc(-c2ccccc2)c1NC(=O)N(CCC#N)Cc1ccccc1
EC50 [4]: > 260 µM (inactive)

N#Cc1ccc(-c2ccc(F)cc2)nc1Sc1ccccc1
AC50 [5]: 5.01 µM (inconclusive) | AC50 [6]: 12.6 µM (inconclusive) | AC50 [7]: 5.01 µM (inconclusive)

CCN(CC)c1ccc(N/C=C2/C(=O)NC(=O)N(c3ccccc3)C2=O)cc1
EC50 [2]: > 300 µM (not active) | EC50 [3]: > 300 µM (not active)

CCOc1cccc2cc(C(N)=O)/c(=N/Cc3ccccc3)oc12
AC50 [6]: 14.1 µM (inconclusive)

CC(=O)Nc1ccc(NC(=O)c2ccc(NS(=O)(=O)c3cc(C(C)(C)C)cc(C)c3C)cc2)cc1
EC50 [4]: 12.5 µM (active)

O=C(CN1CCOCC1)N(c1ccccc1)c1ccc2ccccc2c1
EC50 [4]: > 260 µM (inactive)

O=C(/C=C/c1ccc2c(c1)OCO2)NCCSCc1ccc(Cl)cc1
AC50 [1]: 0.922 µM (active)

CC(C)NCC(O)COCc1ccc(Cl)cc1 (stereo unspecified)
EC50 [4]: > 260 µM (inactive)

CCN(CC(=O)Nc1ccc(NC(C)=O)cc1)C(=O)c1ccccc1CCc1ccccc1
AC50 [1]: > 195 µM (inactive)

Nc1nnnn1/N=C\c1ccc(Cl)c([N+](=O)[O-])c1
EC50 [4]: > 260 µM (inactive)

Cc1ccn(CC(=O)N2CCCC(N3CCN(c4ccc(F)cc4)CC3)C2)n1 (stereo unspecified)
EC50 [4]: > 260 µM (inactive)

COc1ccc(N/C=C2/C(=O)N(c3cccc(C)n3)C(=O)c3ccccc32)cc1
EC50 [2]: > 300 µM (not active) | EC50 [3]: > 300 µM (not active)

O=C(CCC1CCCC1)/N=C1\SC2CS(=O)(=O)CC2N1c1ccccc1F (stereo unspecified)
EC50 [4]: > 260 µM (inactive)

COCCNC(=O)CSc1nc2cc(OC)c(OC)cc2c(=O)n1Cc1ccco1
AC50 [6]: 3.55 µM (inconclusive) | AC50 [7]: 20 µM (inconclusive)

Cc1cc(C)cc(N2C(=O)/C(=C\c3ccc(N4CCN(C)CC4)o3)C(=O)NC2=S)c1
EC50 [2]: > 300 µM (inconclusive) | EC50 [3]: > 300 µM (inconclusive)

CCOC(=O)N1CCN(/C=C(\C#N)c2nc3ccccc3s2)CC1
EC50 [2]: > 300 µM (not active) | EC50 [3]: > 300 µM (not active) | EC50 [8]: 38 µM (active) | EC50 [9]: 14.7 µM (active) | EC50 [10]: 37.5 µM (active)

COCC1CCN(C(=O)CC2C(=O)NCCN2Cc2cccc(Oc3ccccc3)c2)CC1 (stereo unspecified)
EC50 [2]: > 300 µM (not active) | EC50 [3]: > 300 µM (not active)

N#CCCn1c(=O)c(-c2ccc(F)cc2)nc2cnc(N3CCNCC3)nc21
AC50 [6]: 25.1 µM (inconclusive)

COc1ccc(-c2csc(NC(=O)Cn3nc(C)cc3C)n2)cc1
AC50 [5]: 0.794 µM (inconclusive) | AC50 [6]: 15.8 µM (inconclusive)

COc1ccccc1NC(=O)Nc1nc(CC(=O)N2CCN(c3ccccc3)CC2)cs1
EC50 [4]: > 260 µM (inactive)

COc1ccc(Cn2c3ccc(OC)cc3c3nc4ccccc4nc32)cc1
AC50 [1]: 13 µM (active)

Cn1c(S)nnc1CNS(=O)(=O)c1ccc(Cl)cc1
AC50 [6]: 15.8 µM (inconclusive)

O=c1c(-c2cccs2)nc2cnc(N3CCOCC3)nc2n1Cc1ccc(F)cc1
AC50 [6]: 2.51 µM (inconclusive) | AC50 [11]: 20 µM (inconclusive)

CN1C(=O)c2cccc(NCCCCCCN3C(=O)c4ccccc4C3=O)c2C1=O
AC50 [12]: 5.57 µM (active) | AC50 [13]: 17.2 µM (active)

Cc1c(/C=N/NC(=O)c2cc(O)nc(O)n2)c2ccccn2c1C(=O)c1ccccc1
EC50 [2]: > 300 µM (inconclusive) | EC50 [3]: > 300 µM (not active)

Cc1noc(NS(=O)(=O)c2cccc3c(N(C)C)cccc23)c1C [BMS-182874]
AC50 [6]: 20 µM (inconclusive)

CC(C)c1ccc(N2C(=O)CC(Sc3nc4ccccc4o3)C2=O)cc1 (stereo unspecified)
AC50 [6]: 39.8 µM (inconclusive) | AC50 [11]: 5.01 µM (inconclusive)

CC(c1ccccc1)N1CC(C(=O)N2CCN(c3ccc(F)cc3)CC2)CC1=O (stereo unspecified)
EC50 [4]: > 260 µM (inactive)

COc1ccc(O[C@H]2C=C[C@@H](c3ccccc3)O[C@H]2CO/N=C(/C)CCC(=O)OC[C@@H]2O[C@H](C#Cc3ccccc3)C=C[C@@H]2Oc2ccc(C)cc2)cc1
AC50 [6]: 3.16 µM (inconclusive) | AC50 [7]: 0.126 µM (inconclusive)

O=[N+]([O-])c1ccc(/N=C/C=C(\O)c2ccc(Br)cc2)cc1
EC50 [2]: > 300 µM (not active) | EC50 [3]: > 300 µM (not active)

O=c1c(-c2cccc(F)c2)nc2cncnc2n1C1CC1
AC50 [6]: 12.6 µM (inconclusive)

CS(=O)(=O)N1CCC[C@@]2(CCN(C(=O)Nc3cccc(F)c3)C2)C1
AC50 [6]: 12.6 µM (inconclusive)

COC(=O)CCCC1=CC2=CC(=O)C(C)(OC(=O)c3cnc4ccccc4n3)C(=O)C2=CO1 (stereo unspecified)
EC50 [2]: 12.3 µM (active) | EC50 [3]: 12.7 µM (active)

Cc1ccc(NS(=O)(=O)c2sc3ccc(Cl)cc3c2C)cc1
AC50 [1]: 3.78 µM (active)

CCNc1ncc2nc(-c3ccc(OC)cc3)c(=O)n(-c3ccc(OC)cc3)c2n1
AC50 [6]: 12.6 µM (inconclusive)

C/C(NCCN1CCCCC1)=C1/C(=O)NC(=O)N(c2ccc(Cl)cc2)C1=O
EC50 [2]: > 300 µM (not active) | EC50 [3]: > 300 µM (not active)

CCCCN1CCCC[C@H]1C(=O)Nc1c(C)cccc1C [LEVOBUPIVACAINE]
AC50 [6]: 10 µM (inconclusive)

CC(NC(=O)c1ccc(Cl)cc1)c1nnc(SCc2ccc([N+](=O)[O-])cc2)n1C (stereo unspecified)
AC50 [5]: 28.2 µM (inconclusive) | AC50 [6]: 8.91 µM (inconclusive) | AC50 [7]: 39.8 µM (inconclusive) | AC50 [11]: 15.8 µM (inconclusive)

COC(=O)c1ccc(C2Nc3ccc(/C(C)=N/NC(=O)C(OC)c4ccccc4)cc3C3C=CCC32)cc1 (stereo unspecified)
EC50 [2]: 35.2 µM (active) | EC50 [3]: > 300 µM (not active)

From ChEMBL document CHEMBL1201862, “PubChem BioAssay data set” (2004)
